In US3956487A, “Novel antifungal antibiotic substance, and agricultural and horticultural fungicidal composition containing said substance” (Nihon Tokushu Noyaku Seizo Kabushiki Kaisha, priority 1974, dated 1976):
≈ marks a conversion by molar mass, not a printed value. Like-named read-outs stand apart in the source and are kept apart here.

Tests used:
[1] = system: Vibrio comma 904; test: MIC, agar dilution method; format: cell-based
[2] = system: Xanthomonas citri; test: MIC, agar dilution method; format: cell-based
[3] = system: Brown rot (Sclerotinia cineria); test: Field test on brown rot of peach; format: in vivo; conditions: for Morbidity after 7 days since packaging: room temperature storage
Description: Test on Brown rot (Sclerotinia cineria) of peach (field test):
Both the morbidity upon harvest and morbidity of the fruit packed in a cardboard box for storage at room temperature were investigated.

[4] = system: Staphylococcus aureus FDA 209 p
[5] = system: Sarcina lutea PCI 1001
[6] = system: Bacillus subtilis PCI 219
[7] = system: Mycobacterium ATCC 607
[8] = system: Escherichia coli NIHJ
[9] = system: Candida albicans
[10] = system: Saccharomyces cerevisiae
[11] = system: Holmodendrum pedrosei
[12] = system: Trichophyton rubrum
[13] = system: Ophiobolus miyabianus
[14] = system: Aspergillus niger
[15] = system: Xanthomonas oryzae
[16] = system: Alternaria japonica
[17] = system: Alternaria kikuchiana
[18] = system: Sclerotinia cinerea; conditions: 72 hours
[19] = system: Sclerotinia sclerotiorum
[20] = system: Botorytis fabae
[21] = system: Botorytis cinerea; conditions: 48 hours
[22] = system: Sclerotinia cinerea; conditions: 200 mcg/ml solution, 2 days at 27°C
[23] = system: Mice; conditions: for LD50: mice; for No abnormality (dose): mouse, in vivo
[24] = system: Young carp
[25] = not given; remark: listed apart in the source
[26] = system: Sclerotinia rot fungus; conditions: curative, 48 hours
[27] = system: crops; conditions: ordinary dosages
[28] = system: various bacteria
[29] = system: Gray mold fungus; test: Curative test on gray mold of bean leaves; conditions: 48 hours
[30] = system: Gray mold fungus; test: Preventive test on gray mold of bean leaves
[31] = system: Sclerotinia rot fungus; test: Preventive test on sclerotinia rot of bean leaves
[32] = 50 ppm, sprayed twice, 7-day interval

In the case of `CC(N)C(=O)NC1COC(O)C(N)C1O` (stereo not shown), the “minimum inhibitory concentration (MIC)” value ([1]; 24 hours) is reported as 12.5 µg/mL (≈ 57 µM), the “minimum inhibitory concentration (MIC)” value ([1]; 48 hours) is reported as 100 µg/mL (≈ 456 µM) and the “minimum inhibitory concentration (MIC)” value ([2]; 48 hours) is reported as over 100 µg/mL. The “minimum inhibitory concentration (MIC)” value ([2]; 72 hours) was over 100 µg/mL, the Morbidity upon harvest [3, 32] was 0 and the “Morbidity after 7 days since packaging” value [3, 32] was 0. For the same compound, the “minimum inhibitory concentration (MIC)” value ([4]; 24 hours) was over 100 µg/mL, the “minimum inhibitory concentration (MIC)” value ([4]; 48 hours) was over 100 µg/mL and the “minimum inhibitory concentration (MIC)” value ([5]; 24 hours) was 3.12 µg/mL (≈ 14.2 µM). For the same compound, the “minimum inhibitory concentration (MIC)” value ([5]; 48 hours) was 3.12 µg/mL (≈ 14.2 µM), the “minimum inhibitory concentration (MIC)” value ([6]; 24 hours) was over 100 µg/mL and the “minimum inhibitory concentration (MIC)” value ([6]; 48 hours) was over 100 µg/mL. For the same compound, the “minimum inhibitory concentration (MIC)” value ([7]; 24 hours) was over 100 µg/mL, the “minimum inhibitory concentration (MIC)” value ([7]; 48 hours) was over 100 µg/mL and the “minimum inhibitory concentration (MIC)” value ([8]; 24 hours) was 100 µg/mL (≈ 456 µM). For the same compound, the “minimum inhibitory concentration (MIC)” value ([8]; 48 hours) was over 100 µg/mL, the “minimum inhibitory concentration (MIC)” value ([9]; 48 hours) was over 100 µg/mL and the “minimum inhibitory concentration (MIC)” value ([9]; 72 hours) was over 100 µg/mL. For the same compound, the “minimum inhibitory concentration (MIC)” value ([10]; 48 hours) was over 100 µg/mL, the “minimum inhibitory concentration (MIC)” value ([10]; 72 hours) was over 100 µg/mL and the “minimum inhibitory concentration (MIC)” value ([11]; 48 hours) was 25 µg/mL (≈ 114 µM). The “minimum inhibitory concentration (MIC)” value ([11]; 72 hours) was 25 µg/mL (≈ 114 µM), the “minimum inhibitory concentration (MIC)” value ([12]; 48 hours) was 100 µg/mL (≈ 456 µM) and the “minimum inhibitory concentration (MIC)” value ([12]; 72 hours) was over 100 µg/mL. For the same compound, the “minimum inhibitory concentration (MIC)” value ([13]; 48 hours) was 25 µg/mL (≈ 114 µM), the “minimum inhibitory concentration (MIC)” value ([13]; 72 hours) was 25 µg/mL (≈ 114 µM) and the “minimum inhibitory concentration (MIC)” value ([14]; 48 hours) was over 100 µg/mL. For the same compound, the “minimum inhibitory concentration (MIC)” value ([14]; 72 hours) was over 100 µg/mL, the “minimum inhibitory concentration (MIC)” value ([15]; 48 hours) was 50 µg/mL (≈ 228 µM) and the “minimum inhibitory concentration (MIC)” value ([15]; 72 hours) was 100 µg/mL (≈ 456 µM). The “minimum inhibitory concentration (MIC)” value ([16]; 48 hours) was 50 µg/mL (≈ 228 µM), the “minimum inhibitory concentration (MIC)” value ([16]; 72 hours) was 50 µg/mL (≈ 228 µM) and the “minimum inhibitory concentration (MIC)” value ([17]; 48 hours) was over 100 µg/mL. The “minimum inhibitory concentration (MIC)” value ([17]; 72 hours) was over 100 µg/mL, the “minimum inhibitory concentration (MIC)” value [18] was 25 µg/mL (≈ 114 µM) and the “minimum inhibitory concentration (MIC)” value ([19]; 48 hours) was 1.56 µg/mL (≈ 7.12 µM). The “minimum inhibitory concentration (MIC)” value ([19]; 72 hours) was 3.12 µg/mL (≈ 14.2 µM), the “minimum inhibitory concentration (MIC)” value ([20]; 48 hours) was 6.25 µg/mL (≈ 28.5 µM) and the “minimum inhibitory concentration (MIC)” value ([20]; 72 hours) was 25 µg/mL (≈ 114 µM). For the same compound, the “minimum inhibitory concentration (MIC)” value [21] was 6.25 µg/mL (≈ 28.5 µM), the inhibition zone diameter [22] was “about 35 mm” and the LD50 ([23]; intravenous injection) was 160 mg/kg. For the same compound, the LD50 ([23]; oral administration) was 750 mg/kg, the “No abnormality (dose)” value ([23]; iv) was 125 mg/kg and the “No abnormality (dose)” value ([23]; po) was 500 mg/kg. For the same compound, the “no trouble (concentration)” value [24] was 250 ppm, the “Solubility in dimethyl sulfoxide” value (dimethyl sulfoxide) was “Soluble” and the Solubility in ethanol (ethanol) was “sparingly soluble”. For the same compound, the Solubility in methanol (methanol) was “Soluble”, the stability on standing ([25]; allowed to stand for a long time) was “activity became lower and it coloured in yellow” and the retention of activity ([25]; in an acidic solution) was “retains its activity”. The stability ([25]; in the form of aqueous solution) was “very stable”, the retention of activity ([25]; solution neutral to alkaline) was “activity is reduced” and the “Diameter of the disease spot after spraying” value (“Diameter of the disease spot” for short) ([26]; 50 ppm) was 19.6 mm. The “Disease spot inhibiting rate” value ([26]; 50 ppm) was 62%, the “Diameter of the disease spot” value ([26]; 100 ppm) was 16.3 mm and the “Disease spot inhibiting rate” value ([26]; 100 ppm) was 76%. For the same compound, the phytotoxicity to crops [27] was “does not give phytotoxicity to crops”, the antibacterial action [28] was “only weak antibacterial action” and the “Diameter of the disease spot” value ([29]; 25 ppm) was 19.3 mm. The “Disease spot inhibiting rate” value ([29]; 25 ppm) was 59%, the “Diameter of the disease spot” value ([29]; 50 ppm) was 17.0 mm and the “Disease spot inhibiting rate” value ([29]; 50 ppm) was 75%. For the same compound, the “Diameter of the disease spot” value ([29]; 100 ppm) was 16.3 mm and the “Disease spot inhibiting rate” value ([29]; 100 ppm) was 81%.
With `CC(N)C(=O)NC1COC(O)C(N)C1O.Cl` (stereo not shown) the “Diameter of disease spot” value ([30]; 25 ppm) was 23 mm, the “Disease spot inhibiting rate” value ([30]; 25 ppm) was 23% and the “Diameter of disease spot” value ([30]; 50 ppm) was 10 mm. The “Disease spot inhibiting rate” value ([30]; 50 ppm) was 67%, the “Diameter of disease spot” value ([31]; 25 ppm) was 10 mm and the “Disease spot inhibiting rate” value ([31]; 25 ppm) was 71%. The “Diameter of disease spot” value ([31]; 50 ppm) was 0 mm and the “Disease spot inhibiting rate” value ([31]; 50 ppm) was 100%.
In the case of `CCCCNC(=O)n1c(NC(=O)OC)nc2ccccc21` [BENLATE, methyl-1-(butylcarbamoyl)-2-benzimidazole carbamate], the Morbidity upon harvest ([3]; 50% product × 1000) is reported as 0.3 and the “Morbidity after 7 days since packaging” value ([3]; 50% product × 1000) is reported as 46.1.
With `CC1(C)OC(=O)N(c2cc(Cl)cc(Cl)c2)C1=O` [Sclex, 3-(3,5-dichlorophenyl)-5,5-dimethyloxazolidinedione-2,4] the Morbidity upon harvest ([3]; 20% product × 1500) was 0.03, the “Morbidity after 7 days since packaging” value ([3]; 20% product × 1500) was 7.7 and the “Diameter of the disease spot” value ([29]; 20% product × 1000 (200 ppm)) was 17.7 mm. For the same compound, the “Disease spot inhibiting rate” value ([29]; 20% product × 1000 (200 ppm)) was 61%.
